The text below walks through data of patent US8933019B2, “Antiviral cell-penetrating peptides” (priority 2008, dated 2015).

By CC50 is commonly meant the concentration giving 50% cytotoxicity. For orientation: IC50 means the point on the concentration scale where inhibition reaches its midpoint.

Where two headings read alike, the source gives them in different places. Bridge positions count the residues as written; N and C are the ends. Square brackets hold non-standard residues; d marks the D form. Peptide text beside a SMILES is read from it. R8 = C=CCCCCCC[C@@](C)(N)C(=O)O; S5 = C=CCCC[C@](C)(N)C(=O)O

A short description of data set [1]: Cytotoxicity, XTT method, MT-2 cells. The format is cell-based, human. Conditions: human, read-out: CC50 (μM) ± SD, cytotoxicity in MT-2 cells. As for the experimental part:
(§1) Cytotoxicity of peptides in MT-2 cells and PBMC was measured by the XTT [(sodium 3′-(1-(phenylamino)-carbonyl)-3,4-tetrazolium-bis(4-methoxy-6-nitro) bezenesulfonic acid hydrate)] method as previously described (Jiang et al., 2004). Briefly, for MT-2 cells, 100 μl of a peptide at graded concentrations was added to an equal volume of cells (1×10^5 cells/ml) in 96-well plates followed by incubation at 37° C. for 4 days, which ran parallel to the neutralization assay in MT-2 (except medium was added instead of virus). In the case of PBMC, 5×10^5 cells/ml were used and the cytotoxicity was measured after 7 days. After addition of XTT (PolySciences, Inc.), the soluble intracellular formazan was quantitated colorimetrically at 450 nm 4 hr later with a reference at 620 nm. The percent of cytotoxicity and the CC50 values were calculated as above (Table 2 and Table 3).

The subject of a further data set is HIV-1 IIIB. As for the experimental part: (§2) The inhibitory activity of NYAD-201, and related stapled peptides on infection by laboratory-adapted HIV-1 strains was determined as previously described (Jiang et al. J Exp. Med 174:1557-1563, 1991) with minor modifications. Azidothymidine (AZT) was used as a positive control in the infectivity assays. In brief, 1×10^4 MT-2 cells were infected with HIV-1 at 100 TCID50 (50% tissue culture infective dose) (0.01 MOI [multiplicity of infection]) in 200 μl RPMI 1640 medium containing 10% FBS in the presence or absence of peptides at graded concentrations overnight. The culture supernatants were then removed and fresh media containing freshly prepared test peptide were added. On the fourth day post-infection, 100 μl of culture supernatants were collected from each well, mixed with equal volume of 5% Triton X-100 and tested for p24 antigen by ELISA.
(§3) In addition, NYAD-201, NYAD-202 and NYAD-203 were also tested using several laboratory-adapted and primary isolates in MT-2 cells and PBMC (peripheral blood mononuclear cells), respectively.

Another data set relates to Jurkat cells. Put plainly: Cytotoxicity, LDH leakage, Jurkat cells. The format is cell-based. As to conditions: 30 min, 2 hr and 4 hr of exposure. How it is done:
Cytotoxicity was also evaluated in Jurkat cells using a Promega LDH leakage detection kit. Jurkat cells were plated at 10^4 cells/well in a volume of 200 μl. The test was performed after 30 min, 2 hr and 4 hr of exposure to the NYAD-201, NYAD-202 and NYAD-203 compounds.

The nature of data set [2]: Cytotoxicity, XTT method, PBMC. The format is cell-based. As to conditions: human. How it is done:
as §1
Background: Tetrazolium assays rely on reduction of a dye to a coloured formazan, in cell work by metabolically active cells.

Another data set has as its system HIV-1 AZT-R. Conditions: read-out: IC50 (μM ± SD), HIV-1 AZT-R; RT-resistant isolate, subtype B, MT-2, coreceptor X4. How it is done:
as §2, §3

[3] abbreviates: read-out: IC50 (μM) ± SD, antiviral activity against HIV-1 IIIB, MT-2 cells, p24 production, fourth day post-infection.

As for `CC(C)C[C@H](NC(=O)[C@H](CC(C)C)NC(=O)[C@@H](NC(=O)[C@]1(C)CCCC=CCCC[C@](C)(NC(=O)[C@H](CCCCN)NC(=O)[C@H](Cc2c[nH]c3ccccc23)NC(=O)[C@H](C)NC(=O)[C@H](CCC(N)=O)NC(=O)[C@H](C)N)C(=O)N[C@@H](Cc2c[nH]c3ccccc23)C(=O)N[C@@H](C)C(=O)N[C@@H]([C@@H](C)O)C(=O)N1)[C@@H](C)O)C(=O)N[C@H](C(=O)N[C@@H](C)C(=O)N[C@@H](CCC(=O)O)C(N)=O)C(C)C` [NYAD-219, AQAWKXWATXTLLVAE] (H-AQAWK[S5]WAT[S5]TLLVAE-NH2; staple 6-10), the cytotoxic concentration (CC50) at 4 days in data set [1] was over 106 µM. Also, the IC50 with HIV-1 IIIB (setting [3]) is 3.7 ± 0.06 µM.

Consider `CSCC[C@@H]1NC(=O)[C@H](Cc2c[nH]c3ccccc23)NC(=O)[C@@](C)(NC(=O)[C@H](CCCCN)NC(=O)[C@@H](NC(=O)[C@H](C)NC(=O)[C@H](CCC(N)=O)NC(=O)[C@H](C)N)C(C)C)CCCC=CCCC[C@@](C)(C(=O)N[C@H](C(=O)N[C@@H](CC(C)C)C(=O)N[C@@H](CC(C)C)C(=O)N[C@H](C(=O)N[C@@H](CCC(=O)O)C(=O)N[C@@H](CC(N)=O)C(=O)N[C@@H](C)C(N)=O)C(C)C)[C@@H](C)O)NC(=O)[C@H]([C@@H](C)O)NC1=O` [NYAD-212, AQAVKXWMTXTLLVENA] (H-AQAVK[S5]WMT[S5]TLLVENA-NH2; staple 6-10), for which, in data set [1], the CC50 at 4 days was over 102 µM. In addition, the 50% inhibitory concentration (IC50) in the data set on HIV-1 IIIB (setting [3]) is 5.95 ± 0.33 µM.

As for `CSCC[C@@H]1NC(=O)[C@H](Cc2c[nH]c3ccccc23)NC(=O)[C@@](C)(NC(=O)[C@H](CCCCN)NC(=O)[C@@H](NC(=O)[C@H](C)NC(=O)[C@H](CCC(N)=O)NC(=O)[C@H](C)N)C(C)C)CCCC=CCCC[C@@](C)(C(=O)N[C@H](C(=O)N[C@@H](CC(C)C)C(=O)N[C@@H](CCCCN)C(=O)N[C@H](C(=O)N[C@@H](C)C(=O)N[C@@H](CCC(=O)O)C(N)=O)C(C)C)[C@@H](C)O)NC(=O)[C@H](CCC(=O)O)NC1=O` [NYAD-220, AQAVKXWMEXTLKVAE] (H-AQAVK[S5]WME[S5]TLKVAE-NH2; staple 6-10), the 50% cytotoxic concentration (CC50) at 4 days in data set [1] is over 105 µM. For the same compound, the concentration for half-maximal inhibition (IC50) in the data set on HIV-1 IIIB (setting [3]) is over 52.7 µM.

As to `CSCC[C@@H]1NC(=O)[C@H](Cc2c[nH]c3ccccc23)NC(=O)[C@](C)(NC(=O)[C@H](CCCCN)NC(=O)[C@@H](NC(=O)[C@H](C)NC(=O)[C@H](CCC(N)=O)NC(=O)[C@H](C)N)C(C)C)CCCCCCC=CCCC[C@@](C)(C(=O)N[C@H](C(=O)N[C@@H](C)C(N)=O)C(C)C)NC(=O)[C@H](CC(C)C)NC(=O)[C@H]([C@@H](C)O)NC(=O)[C@H](CCC(=O)O)NC(=O)[C@H]([C@@H](C)O)NC1=O` [NYAD-221, AQAVKZWMTETLXVA] (H-AQAVK[R8]WMTETL[S5]VA-NH2; staple 6-13), in data set [1], the half-maximal cytotoxic concentration (CC50) at 4 days was over 140 µM. Besides, the IC50 in the data set with HIV-1 IIIB (setting [3]) was 7.97 ± 1.03 µM.

On to `CSCC[C@@H]1NC(=O)[C@H](CCCCN)NC(=O)[C@@](C)(NC(=O)[C@H](Cc2c[nH]c3ccccc23)NC(=O)[C@@H](NC(=O)[C@H](CC(C)C)NC(=O)[C@H](CCC(N)=O)NC(=O)[C@@H](N)CCC(=O)O)C(C)C)CCCC=CCCC[C@@](C)(C(=O)N[C@@H](C)C(=O)N[C@@H](CC(C)C)C(=O)N[C@@H](C)C(=O)N[C@H](C(=O)N[C@H](C(N)=O)[C@@H](C)O)C(C)C)NC(=O)[C@H]([C@@H](C)O)NC1=O` [NYAD-215, EQLVWXKMTXALAVT, reference compound] (H-EQLVW[S5]KMT[S5]ALAVT-NH2; staple 6-10), for which, in data set [1], the half-maximal cytotoxic concentration (CC50) at 4 days was over 112 µM. Moreover, the IC50 in the data set with HIV-1 IIIB (setting [3]) was over 56 µM.

As for `CSCC[C@@H]1NC(=O)[C@H](Cc2c[nH]c3ccccc23)NC(=O)[C@@](C)(NC(=O)[C@H](CCCCN)NC(=O)[C@@H](NC(=O)[C@H](CCC(=O)O)NC(=O)[C@H](CCC(N)=O)NC(=O)[C@H](C)N)C(C)C)CCCC=CCCC[C@@](C)(C(=O)N[C@H](C(=O)N[C@@H](CC(C)C)C(=O)N[C@@H](CC(C)C)C(=O)N[C@H](C(=O)N[C@@H](C)C(=O)N[C@@H](CCCCN)C(=O)N[C@@H](CCCCN)C(=O)N[C@@H](CCCCN)C(N)=O)C(C)C)[C@@H](C)O)NC(=O)[C@H]([C@@H](C)O)NC1=O` [NYAD-203, AQEVKXWMTXTLLVAKKK] (H-AQEVK[S5]WMT[S5]TLLVAKKK-NH2; staple 6-10), the “Cytotoxicity in Jurkat cells (LDH leakage)” value with Jurkat cells is on record as “more toxic at the two higher doses”. For the same compound, the 50% cytotoxic concentration (CC50) at 4 days in data set [1] worked out at 13.2 ± 0.5 µM. This compound also registered a CC50 at 7 days in data set [2] of 16 ± 1.47 µM. Besides, the IC50 in the data set on HIV-1 AZT-R turned out to be 11.1 ± 3.82 µM; with HIV-1 IIIB (read-out: IC50 (μM ± SD), HIV-1 IIIB, laboratory strain, subtype B, MT-2, coreceptor X4) it was 6.29 ± 0.54 µM; in the data set with HIV-1 IIIB (setting [3]), 6.29 ± 0.54 µM.

`CC[C@H](C)[C@H](N)C(=O)N[C@@H](C)C(=O)N[C@@H](CCC(N)=O)C(=O)N[C@@H](C)C(=O)N[C@@H](CCCCN)C(=O)N[C@H](C(=O)N[C@@H](CCC(=O)O)C(=O)N[C@@]1(C)CCCC=CCCC[C@@](C)(C(=O)N[C@H](C(=O)N[C@@H](CC(C)C)C(=O)N[C@@H](CC(C)C)C(=O)N[C@H](C(=O)N[C@@H](C)C(=O)N[C@@H](CC(N)=O)C(N)=O)C(C)C)[C@@H](C)O)NC(=O)[C@H]([C@@H](C)O)NC(=O)[C@H](CCSC)NC(=O)[C@H](Cc2c[nH]c3ccccc23)NC1=O)C(C)C` [NYAD-223, IAQAKVEXWMTXTLLVAN] (H-IAQAKVE[S5]WMT[S5]TLLVAN-NH2; staple 8-12): in data set [1], the CC50 at 4 days was over 124 µM. In addition, in the data set on HIV-1 IIIB (setting [3]), the concentration for half-maximal inhibition (IC50) was 7.2 ± 1.2 µM.

As to `CSCC[C@@H]1NC(=O)[C@H](Cc2c[nH]c3ccccc23)NC(=O)[C@@](C)(NC(=O)[C@H](CCCCN)NC(=O)[C@@H](NC(=O)[C@H](C)NC(=O)[C@H](CCC(N)=O)NC(=O)[C@H](C)N)C(C)C)CCCC=CCCC[C@@](C)(C(=O)N[C@H](C(=O)N[C@@H](CC(C)C)C(=O)N[C@@H](CC(C)C)C(=O)N[C@@H](CCCCN)C(=O)N[C@@H](C)C(=O)N[C@@H](CC(N)=O)C(=O)N[C@@H](C)C(=O)N[C@@H](CCC(=O)O)C(N)=O)[C@@H](C)O)NC(=O)[C@H]([C@@H](C)O)NC1=O` [NYAD-214, AQAVKXWMTXTLLKANAE] (H-AQAVK[S5]WMT[S5]TLLKANAE-NH2; staple 6-10), in data set [1], the 50% cytotoxic concentration (CC50) at 4 days was over 48 µM. Besides, the concentration for half-maximal inhibition (IC50) with HIV-1 IIIB (setting [3]) was 17.4 ± 0.9 µM.

With `CC(C)C[C@@H]1NC(=O)[C@H]([C@@H](C)O)NC(=O)[C@H](CCC(=O)O)NC(=O)[C@H]([C@@H](C)O)NC(=O)[C@H](C)NC(=O)[C@H](Cc2c[nH]c3ccccc23)NC(=O)[C@](C)(NC(=O)[C@H](CCCCN)NC(=O)[C@H](Cc2c[nH]c3ccccc23)NC(=O)[C@H](C)NC(=O)[C@H](CCC(N)=O)NC(=O)[C@H](C)N)CCCCCCC=CCCC[C@@](C)(C(=O)N[C@H](C(=O)N[C@@H](C)C(=O)N[C@@H](CC(N)=O)C(N)=O)C(C)C)NC1=O` [NYAD-222, AQAWKZWATETLXVAN] (H-AQAWK[R8]WATETL[S5]VAN-NH2; staple 6-13), the CC50 at 4 days in data set [1] was over 130 µM. Also, in the data set on HIV-1 IIIB (setting [3]), the IC50 was 9.3 ± 1.6 µM.

On to `CSCC[C@H](NC(=O)[C@H](Cc1c[nH]c2ccccc12)NC(=O)[C@H](CC(N)=O)NC(=O)[C@H](CCCCN)NC(=O)[C@@H](NC(=O)[C@H](C)NC(=O)[C@H](CCC(N)=O)NC(=O)[C@H](C)N)C(C)C)C(=O)N[C@H](C(=O)N[C@@]1(C)CCCC=CCCC[C@@](C)(C(=O)N[C@@H](C)C(N)=O)NC(=O)[C@H](CC(C)C)NC(=O)[C@H](CC(C)C)NC(=O)[C@H]([C@@H](C)O)NC1=O)[C@@H](C)O` [NYAD-218, AQAVKNWMTXTLLXA] (H-AQAVKNWMT[S5]TLL[S5]A-NH2; staple 10-14), for which, in data set [1], the CC50 at 4 days was 67.3 ± 4.4 µM. Besides, the IC50 with HIV-1 IIIB (setting [3]) came out at 4.6 ± 0.4 µM.
